According to patent US20210323913A1, “SIGMA RECEPTOR BINDERS” (BOARD OF REGENTS, THE UNIVERSITY OF TEXAS SYSTEM, priority 2016, published 2021):
Read-outs that look alike come from different tables or passages of the source.

Legend:
5-ht5a = 5-ht5a (Homo sapiens, UniProt P47898); experiment: Radioligand competition binding, 5-ht5a; details: Table 5; Cheng-Prusoff from best fit IC50
sigma 2 receptor = sigma 2 receptor (Homo sapiens, UniProt Q5BJF2); experiment: Sigma 2 receptor radioligand competition binding; details: for Ki ratio Sig1R/Sig2R: Table 1, ratio of Sig1R Ki to Sig2R Ki
Alpha2B = Alpha2B (Homo sapiens, UniProt P18089); experiment: Radioligand competition binding, Alpha2B; details: Table 5; Cheng-Prusoff from best fit IC50
MOR = MOR (Homo sapiens, UniProt P35372); experiment: Radioligand competition binding, MOR; details: Table 5; Cheng-Prusoff from best fit IC50
KOR = KOR (Homo sapiens, UniProt P41145); experiment: Radioligand competition binding, KOR; details: Table 5; Cheng-Prusoff from best fit IC50; some values marked (AVE)
5-HT2B = 5-HT2B (Homo sapiens, UniProt P41595); experiment: Radioligand competition binding, 5-HT2B; details: Table 5; Cheng-Prusoff from best fit IC50
sigma 1 receptor = sigma 1 receptor (Homo sapiens, UniProt Q99720); experiment: Sigma 1 receptor radioligand competition binding
5-HT7 = 5-HT7 (Homo sapiens, UniProt P34969); experiment: Radioligand competition binding, 5-HT7; details: Table 5; Cheng-Prusoff from best fit IC50
D5 = D5 (Homo sapiens, UniProt P21918); experiment: Radioligand competition binding, D5; details: Table 5; Cheng-Prusoff from best fit IC50
H2 = H2 (Homo sapiens, UniProt P25021); experiment: Radioligand competition binding, H2; details: Table 5; Cheng-Prusoff from best fit IC50
Alpha2A = target: T1, Alpha2A (Homo sapiens, UniProt P08913); experiment: Radioligand competition binding, Alpha2A; details: Table 5; Cheng-Prusoff from best fit IC50
T1 sequence (P08913 1-465): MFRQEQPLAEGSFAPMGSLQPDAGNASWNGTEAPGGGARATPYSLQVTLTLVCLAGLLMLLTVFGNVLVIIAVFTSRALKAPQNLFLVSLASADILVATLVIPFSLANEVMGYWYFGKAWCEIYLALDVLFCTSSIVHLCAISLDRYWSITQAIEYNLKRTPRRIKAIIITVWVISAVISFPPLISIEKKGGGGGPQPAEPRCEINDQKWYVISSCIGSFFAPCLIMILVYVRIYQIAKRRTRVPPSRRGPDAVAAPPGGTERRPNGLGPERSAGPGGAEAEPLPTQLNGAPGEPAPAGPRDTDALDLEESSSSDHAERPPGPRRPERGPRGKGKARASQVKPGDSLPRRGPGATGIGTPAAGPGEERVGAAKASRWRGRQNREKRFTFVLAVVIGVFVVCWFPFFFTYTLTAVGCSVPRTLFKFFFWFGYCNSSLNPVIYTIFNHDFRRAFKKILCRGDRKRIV

5-HT1B = 5-HT1B (Homo sapiens, UniProt P28222); experiment: Radioligand competition binding, 5-HT1B; details: Table 5; Cheng-Prusoff from best fit IC50
D1 = D1 (Homo sapiens, UniProt P21728); experiment: Radioligand competition binding, D1; details: Table 5; Cheng-Prusoff from best fit IC50; some values marked (AVE)
D3 = D3 (Homo sapiens, UniProt P35462); experiment: Radioligand competition binding, D3; details: Table 5; Cheng-Prusoff from best fit IC50; one value marked (AVE)
D4 = target: T2, D4 (Homo sapiens, UniProt P21917); experiment: Radioligand competition binding, D4; details: Table 5; Cheng-Prusoff from best fit IC50
T2 sequence (P21917 1-419): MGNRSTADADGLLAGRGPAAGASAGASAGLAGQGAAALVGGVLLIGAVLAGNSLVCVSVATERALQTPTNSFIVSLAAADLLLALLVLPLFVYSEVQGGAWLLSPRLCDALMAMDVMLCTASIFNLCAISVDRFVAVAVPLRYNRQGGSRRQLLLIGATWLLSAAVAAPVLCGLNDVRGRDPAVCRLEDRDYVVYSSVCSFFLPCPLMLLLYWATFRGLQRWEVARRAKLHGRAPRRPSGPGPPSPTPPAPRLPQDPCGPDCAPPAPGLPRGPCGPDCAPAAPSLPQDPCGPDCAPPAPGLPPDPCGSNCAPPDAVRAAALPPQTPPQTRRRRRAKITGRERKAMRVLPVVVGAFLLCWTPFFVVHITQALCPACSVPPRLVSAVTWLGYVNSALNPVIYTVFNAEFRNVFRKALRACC

5-HT1D = 5-HT1D (Homo sapiens, UniProt P28221); experiment: Radioligand competition binding, 5-HT1D; details: Table 5; Cheng-Prusoff from best fit IC50
D2 = D2 (Homo sapiens, UniProt P14416); experiment: Radioligand competition binding, D2; details: Table 5; Cheng-Prusoff from best fit IC50
5-HT1A = target: T3, 5-HT1A (Homo sapiens, UniProt P08908); experiment: Radioligand competition binding, 5-HT1A; details: Table 5; Cheng-Prusoff from best fit IC50
T3 sequence (P08908 1-422): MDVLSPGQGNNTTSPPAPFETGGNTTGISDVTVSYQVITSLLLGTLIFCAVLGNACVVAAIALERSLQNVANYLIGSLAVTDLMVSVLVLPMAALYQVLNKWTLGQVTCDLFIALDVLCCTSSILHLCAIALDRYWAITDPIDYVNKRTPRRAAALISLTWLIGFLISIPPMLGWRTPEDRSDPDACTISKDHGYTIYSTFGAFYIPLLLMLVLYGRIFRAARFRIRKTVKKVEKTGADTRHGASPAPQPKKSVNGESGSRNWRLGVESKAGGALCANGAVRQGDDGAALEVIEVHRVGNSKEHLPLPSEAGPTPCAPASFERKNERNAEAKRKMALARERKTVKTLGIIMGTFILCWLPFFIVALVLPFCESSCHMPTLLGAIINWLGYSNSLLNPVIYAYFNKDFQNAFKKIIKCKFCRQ

DAT = DAT (Homo sapiens, UniProt Q01959); experiment: Radioligand competition binding, DAT; details: Table 5; Cheng-Prusoff from best fit IC50
5-HT6 = 5-HT6 (Homo sapiens, UniProt P50406); experiment: Radioligand competition binding, 5-HT6; details: Table 5; Cheng-Prusoff from best fit IC50
5-HT2A = 5-HT2A (Homo sapiens, UniProt P28223); experiment: Radioligand competition binding, 5-HT2A; details: Table 5; Cheng-Prusoff from best fit IC50
Beta3 = Beta3 (Homo sapiens, UniProt P13945); experiment: Radioligand competition binding, Beta3; details: Table 5; Cheng-Prusoff from best fit IC50
[1] = Table 5, Cheng-Prusoff from best fit IC50, read-out: Ki Sigma 2
[2] = Table 1, 7-piperazinyl-tetrahydronaphthalene analogs, read-out: Ki (nM) Sig2R
[3] = Table 1, 7-piperazinyl-tetrahydronaphthalene analogs, read-out: Ki (nM) Sig1R

| Structure (SMILES) | Ki (sigma 2 receptor; [1]) | Ki (5-HT2B) | Ki (5-HT7) | Ki (D5) | Ki (H2) | Ki (5-HT1B) | Ki (sigma 2 receptor; [2]) | Ki ratio Sig1R/Sig2R (sigma 2 receptor) | Ki (D1) | Ki (D3) | Ki (D4) | Ki (5-HT1D) | Ki (5-HT1A) | Ki (sigma 1 receptor; [3]) | Ki (5-HT6) | Ki (5-HT2A) | other results |
| --- | --- | --- | --- | --- | --- | --- | --- | --- | --- | --- | --- | --- | --- | --- | --- | --- | --- |
| CN(CCCO)C1CCCc2ccc(-c3ccc(C(F)(F)F)cc3)cc21 (stereo not drawn) [MDW-1-144, 3-(Methyl(7-(4-(trifluoromethyl)phenyl)-1,2,3,4-tetrahydronaphthalen-1-yl)amino)propan-1-ol] | 50 nM | 3590 nM | 2400 nM | > 10 µM | 327 nM | – | – | – | – | – | – | – | – | – | – | – | Ki (5-ht5a): > 10 µM; Ki (Alpha2B): 524 nM; Ki (MOR): 307 nM; Ki (KOR): 154 nM; Ki (sigma 1 receptor; Table 5, Cheng-Prusoff from best fit IC50, read-out: Ki Sigma 1): 1270 nM |
| CCCN1CCN(c2ccc3c(c2)C(N(CCC)C(=O)OCc2ccccc2)CCC3)CC1 (stereo not drawn) [MDW-1-196, Benzyl propyl(7-(4-propylpiperazin-1-yl)-1,2,3,4-tetrahydronaphthalen-1-yl)carbamate] | 9.4 nM | 2140 nM | 1050 nM | > 10 µM | 1040 nM | 1310 nM | 9 nM | 22 | 1920 nM | 177 nM | 2510 nM | 1100 nM | 3800 nM | 199 nM | 1960 nM | 1280 nM | Ki (Alpha2A): 980 nM; Ki (D2): 931 nM; Ki (DAT): 1910 nM |
| CN(C(=O)OCc1ccccc1)C1CCCc2ccc(N3CCN(CCCO)CC3)cc21 (stereo not drawn) [MDW-1-177, Benzyl (7-(4-(3-hydroxypropyl)piperazin-1-yl)-1,2,3,4-tetrahydronaphthalen-1-yl)(methyl)carbamate] | 21 nM | 99 nM | 585 nM | – | 291 nM | 261 nM | 21 nM | 23 | 1350 nM | 597 nM | > 10000 nM | 136 nM | 528 nM | 474 nM | 1230 nM | 632 nM | Ki (Beta3): 8.04 µM |
